Key:
[1] = target: Antibody from Diazo-coupled Immunogen; experiment: RIA cross-reactivity: competition with labeled physostigmine for antibody from diazo-coupled immunogen; format: binding, New Zealand white rabbits; details: 1:150, max 1000 ng tested
Protocol: Antibodies to the physostigmine-BSA immunogen were produced by injecting male New Zealand white rabbits with immunogens formed by either method. Prior to injection, the immunogen was emulsified with an equal volume of complete Freund's adjuvant, purchased from Difco Laboratories of Detroit, Mich. The initial immunization consisted of 0.8 mg of protein injected intracutaneously in multiple dorsal sites of the rabbits. Booster injections containing 0.8 mg of immunogen and incomplete Freund's adjuvant were administered every two months for the next six months. Antisera was collected one week after each booster injection from the central ear vein. The blood was allowed to clot at room temperature and then centrifuged at 1500×g for 15 minutes. The separated serum was stored frozen at -20° C. until assayed for the presence of physostigmine antibody.
In the assay procedure ^3 H-Physostigmine having specificity of 19.0 Ci/mmole and purchased from the Amersham Corp. of Arlington Heights, Ill., was used as tracer. The dilution of tracer (5000 dpm), antibody (1:150) and physostigmine standards (100-10,000 pg) were made using 0.01M phosphate buffer containing 150 mM sodium chloride with a pH of 7.4. […] Both standard and sample tubes were always analyzed in duplicate. The assay was carried out according to the protocol shown in Table 1 with the reagents were added to the assay tubes in the order shown.
According to the protocol for the RIA of the present invention, after the addition of antisera, the contents of the tubes were mixed and incubated for 3 hours at 4° C. The antigen which bound to the antibody was separated by adding saturated ammonium sulfate and centrifuging at 2500×g for 15 minutes. After aspiration of the supernatant, the precipitate was washed one time with 50% saturated ammonium sulfate; then the mixture was centrifuged and the supernatent removed. The precipitate was dissolved in 1.0 ml of distilled water, and the solution was transferred to a scintillation vial containing 10.0 ml of acquasol 2.
The radioactivity which was bound to the antibody was determined in counts per minute with a Beckman LS-3133P Liquid Scintillation Counter. […] The concentration of physostigmine is plotted on the horizontal axis, while the percent inhibition of binding radioactively labeled is plotted on the vertical axis. […] Concentrations of physostigmine in unknown samples were determined according to conventional calculations from the standard curve.
Competition of the compounds with labeled physostigmine (5000 dpm) for antibody binding sites was determined arbitrarily at 50% inhibition of the physostigmine on the standard curve. Each compound was tested for cross-reactivity with the antibody. The maximum concentration of each compound tested was 1000 ng.

[2] = particularly in plasma and blood; cited from earlier work
[3] = cited from earlier work
[4] = Stability of physostigmine in rat plasma; format: in vitro ADME; details: for Amount Recovered: rat plasma
Protocol: To show the stability of physostigmine in biological fluids, physostigmine was added to 2 portions of rat plasma. One half of the plasma was kept at room temperature and the other was kept at 4° C. Aliquots which originally contained 3.6 ng of physostigmine were assayed at various times. […] Since the samples were cooled and processed at 4° C., corrections for loss of physostigmine were unnecessary.

CNC(=O)Oc1ccc2c(c1)[C@]1(C)CCN(C)[C@@H]1N2C [Physostigmine, physostigmine]
IC50 (50% inhibition of binding of 3H-physostigmine) [1]: 1.35 ng
in vitro hydrolysis in biological solutions [2]: extensive in vitro hydrolysis
adverse muscarinic effects ([3]; certain patients): nausea, vomiting, diarrhea, miosis, excessive salivation and sweating, abdominal cramps, bradycardia, bronchial secretion and bronchospasm
toxic level relative to therapeutic level ([3]; clinical use): toxic at levels very close to those which produce therapeutic results
effect of substantial over administration ([3]; overdose): cholinergic crisis leading to death
other side effects ([3]; thrombophlebitis if administered intravenously): generalized weakness, muscle cramps, fasciculation, hypotension, and, if administered intraveneously, thrombophlebitis
Amount Recovered ([4]; 4° C., 0 min, originally 3.6 ng): 3.6 ng
Amount Recovered ([4]; 4° C., 15 min): 3.4 ng
Amount Recovered ([4]; 4° C., 30 min): 3.6 ng
Amount Recovered ([4]; 4° C., 1 hr): 3.8 ng
Amount Recovered ([4]; 4° C., 2 hr): 3.6 ng
Amount Recovered ([4]; 4° C., 3 hr): 3.6 ng
Amount Recovered ([4]; 4° C., 4 hr): 3.6 ng
Amount Recovered ([4]; 23° C., 0 min, originally 3.6 ng): 3.6 ng
Amount Recovered ([4]; 23° C., 15 min): 3.3 ng
Amount Recovered ([4]; 23° C., 30 min): 3.1 ng
Amount Recovered ([4]; 23° C., 1 hr): 2.7 ng
Amount Recovered ([4]; 23° C., 2 hr): 2.8 ng
Amount Recovered ([4]; 23° C., 3 hr): 2.8 ng
Amount Recovered ([4]; 23° C., 4 hr): 2.8 ng
remaining at 3 h ([4]; rat, plasma, kept at 4° C. for 3 hr, read-out: physostigmine recovered from plasma samples): > 95%
remaining at 0.25 h ([4]; rat, plasma, processed within 15 min. at room temperature, read-out: physostigmine recovered from plasma samples): > 95%

From US5252495A, “Immunoassay for physostigmine” (priority 1992, dated 1993)
